Results published in patent US9402827B2, “Treatment of gout” (ARDEA BIOSCIENCES, INC., priority 2010, dated 2016).

What was measured:
IL-1β [1] = test: In vitro primary human monocyte assay, IL-1β; type: cell-based; settings: primary human monocytes, FIG. 4A
Procedure: Blood (50-60 ml) was collected in Heparin vaccutainers (BD vaccutainer, Cat No-367874, Sodium Heparin, 10 ml tube; each holding ˜8-10 ml blood), which was immediately mixed to prevent coagulation. Accuspin-Histopaque 1077 (Sigma Aldrich cat no-A7054) was allowed to reach room temperature and diluted blood 1:1 in DPBS (Dulbecco's Phosphate-Buffered Saline (1×), liquid—Invitrogen, 14040-133), mixed by pipetting. The tubes were centrifuged (800 g; 30 seconds; room temp) to ensure all the Histopaque 1077 was below the high density polyethylene barrier.
Diluted blood (50 ml) was added to the upper chamber of each ACCUSPIN tube and centrifuged at room temp for 10 minutes at 1000×g or 15 minutes at 800×g, (brakes were off for this step; acc=1, dcl=1). PBMCs were collected from the PBS/Ficoll interphase with a transfer pipette and transferred to a new 50 mL tube. […]
Supernatant was decanted and 5 mL of RBC lysis solution added to the pellet and mixed well. […] The supernatant was discarded, resuspended in RPMI complete media, and the cells counted.
The hPBM cells isolated in step A were counted, centrifuged (300 g; 10 min) and the supernatant aspirated. […]
The centrifuged cells were then resuspended in 5 ml of MACS buffer and applied to the column. […] Cells were spun down (300 g, 5 min; supernatant discarded), resuspended in RPMI complete media and counted.

gout flares = test: Phase II clinical trial in gout patients with hyperuricemia: time to first flare, flare rate (Example 5); type: in vivo, human; settings: for 4 Wk % Flare (percent of patients experiencing at least one gout flare by week 4): based on ITT patient number, colchicine prophylaxis; for Time to First Flare (cumulative flare rate), Day 0 / Time to First Flare (cumulative flare rate), Day 7 / Time to First Flare (cumulative flare rate), Day 14 / Time to First Flare (cumulative flare rate), Day 21 / Time to First Flare (cumulative flare rate), Day 28: colchicine prophylaxis 0.5-0.6 mg QD
Procedure: A phase II clinical trial including 123 gout patients with hyperuricemia (serum uric acid ≧8 mg/dL) in 4 treatment arms was conducted. The trail lasted 8 weeks, comprising a 2 week run in period, 4 week treatment period and 2 week follow-up.
Patients were randomly assigned to arms 1, 2, 3 or 4 and orally administered Lesinurad according to Table 9 below and FIG. 8; all received colchicine prophylaxis (0.5-0.6 mg QD) for 2 weeks prior to Lesinurad dosing and throughout the 4 week treatment period.

[2] = system: monosodium urate crystal-induced inflammatory response; test: Rat air pouch model of crystal-induced arthropathy (Example 3A); type: in vivo, Sprague-Dawley rats; settings: Lesinurad 10, 30 and 100 mg/kg PO; MSU 150 mg; FIG. 5
Procedure: Procedure • 1. […] NaOH was added as required to maintain pH 8-9. The solution was filtered and incubated at ambient with slow stirring continuously for 24 hours. • b. Crystals were washed, dried and sterilized by autoclaving. • c. […] The rats were anesthetized and bled for sample from retro-orbital sinus into microtainer tubes. • a. The blood was processed to serum; • b. The serum was transferred to labeled Eppendorf tubes (T=0) and stored at −80° C. • c. […] DAY 0: The rats are anesthetized. • a. The nape of the neck was shaved, cleansed with 70% isopropanol followed by cleansing with Povidone. • b. A 23-gauge needle was attached to a 30 ml syringe fitted with an air filter. • c. 30 ml of sterile air was injected subcutaneously and the rat returned to routine maintenance. • 7. DAY 3: Steps 6a) through 6c) were repeated. • 8. […] Exudates volume was measured and recorded for each animal. • a. […] Mean cell counts and standard deviations were determined for each group. • b. Mean optical absorbance measurements and standard deviations were determined for each group. • c. Group means and standard deviations for TNF-alpha and IL-1 were determined for each group. • d. Statistical significance of treatments on mean cell counts, mean optical absorbance measurements and mean cytokine measurements were determined by comparison of means for treatment and positive control groups with vehicle group.

IL-1β [3] = test: In vitro THP-1 (human cell) assay, IL-1β; type: cell-based; settings: differentiated THP-1 cells, 6 hours, FIG. 3B
Procedure: Uric acid (2 g, Sigma, Cat #U0881, Log S89329-419) was heated in a flask at 200° C. for 2 hours. Endotoxin free water (396 mL) followed by aqueous sodium hydroxide solution (2.375 mL of 5N or 1.19 mL 10N) were added and heated on a stir plate until the uric acid dissolved. […] The solution was stirred at room temperature for 24 hours and then centrifuged at 1000 g for 10 min. The supernatant was discarded and resuspended in PBS and centrifuged at 1000 g for 10 min; this step was repeated twice. The washed crystals were heated at 60° C. until dry and then autoclaved at 200° C. for 2 hours. The crystals were then weighed and resuspended in PBS at a concentration of 26 mg/ml.
THP-1 cells were differentiated with 0.5 μM of phorbol myristate acetate (PMA) incubated for 3 hours. Cells were then spun down and washed once with HBSS. 1.25×10^6/mL cells were plated in white clear bottom white 96 well plate in 100 μL volume and incubated overnight. The next day the media was aspirated from the wells. 100 μL of 1× Optimem along with the compounds were added.

[4] = Arm 2 (200 mg week 1, 400 mg weeks 2-4)
[5] = Arm 3 (200 mg week 1, 400 mg week 2, 600 mg weeks 3-4)

O=C(O)CSc1nnc(Br)n1-c1ccc(C2CC2)c2ccccc12 [Lesinurad, 2-(5-bromo-4-(4-cyclopropylnaphthalen-1-yl)-4H-1,2,4-triazol-3-ylthio)acetic acid]
IC50 (IL-1β [1]; Monocyte): ~50 µM
IL-1β inhibition (IL-1β [1]; 100 uM, 50 uM and 25 uM): dose dependent IL-1β inhibition
4 Wk % Flare (percent of patients experiencing at least one gout flare by week 4) (gout flares; Arm 1 (200 mg weeks 1-4)): 10%
Time to First Flare (cumulative flare rate), Day 0 (gout flares; Arm 1 (200 mg weeks 1-4)): 27
Time to First Flare (cumulative flare rate), Day 7 (gout flares; Arm 1 (200 mg weeks 1-4)): 27
Time to First Flare (cumulative flare rate), Day 14 (gout flares; Arm 1 (200 mg weeks 1-4)): 26
Time to First Flare (cumulative flare rate), Day 21 (gout flares; Arm 1 (200 mg weeks 1-4)): 25
Time to First Flare (cumulative flare rate), Day 28 (gout flares; Arm 1 (200 mg weeks 1-4)): 25
4 Wk % Flare (percent of patients experiencing at least one gout flare by week 4) (gout flares; [4]): 12%
Time to First Flare (cumulative flare rate), Day 0 (gout flares; [4]): 31
Time to First Flare (cumulative flare rate), Day 7 (gout flares; [4]): 31
Time to First Flare (cumulative flare rate), Day 14 (gout flares; [4]): 30
Time to First Flare (cumulative flare rate), Day 21 (gout flares; [4]): 28
Time to First Flare (cumulative flare rate), Day 28 (gout flares; [4]): 26
Time to First Flare (cumulative flare rate), Day 0 (gout flares; [5]): 33
Time to First Flare (cumulative flare rate), Day 7 (gout flares; [5]): 31
Time to First Flare (cumulative flare rate), Day 14 (gout flares; [5]): 31
Time to First Flare (cumulative flare rate), Day 21 (gout flares; [5]): 29
Time to First Flare (cumulative flare rate), Day 28 (gout flares; [5]): 29
4 Wk % Flare (percent of patients experiencing at least one gout flare by week 4) (gout flares; Arm 3 (200/400/600/600 mg)): 13%
monosodium urate crystal-induced inflammatory response (total white blood cell counts) [2]: blocked
IC50 (IL-1β [3]): ~30 µM
